The text below walks through data of patent publication US5294605A, “Amphiphilic peptide compositions and analogues thereof” (The Scripps Research Institute, priority 1991, dated 1994).

What all share (format): cell-based
Assay [1] deals with Escherichia coli. As to conditions: LB medium. As for the experimental part: (§1) For the following Examples 3-9, antimicrobial assays were carried out in 96-well tissue culture plates. Each well was incubated with a given microorganism (Escherichia coli, Staphylococcus epidermidis, or Pseudomonas aeruginosa) suspended in LB medium. Upon the addition of the parent peptide having the structural formula hereinabove described, or its substitution analogues, or of Peptide I (dissolved in 1 X PBS, pH 7.0) each well contained a final cell density of 1.0×10^6 colony forming units (CFU)/ml. The final peptide concentrations ranged from 1.5 μg/ml to greater than 100 μg/ml.
(§2) Addition of peptides to the wells was defined as time zero. At twenty hours, the plates were placed in a Titertek Multiskan apparatus and the O.D.620 determined. The plates as well as the initial innoculum were incubated at 37° C.
(§3) Five wells per plate contained media alone, while five others contained medium plus cells. These controls were used to eliminate the possibility of media contamination while providing a measure of uninhibited growth of the microorganisms.
(§4) The degree of peptide activity was determined by comparing the substitution analogues with uninhibited growth of the control cells over a twenty-hour period.
(§5) as hereinabove described and analogues thereof wherein a methionine sulfoxide residue was substituted for various amino acid residues of the parent peptide were prepared as hereinabove described in Example 1 and tested for minimum inhibitory concentration with respect to E. coli, P. aeruginosa, and S. epidermidis at a concentration given in μg/ml, and for percent hemolysis of human red blood cells as hereinabove described in Example 2. The minimum inhibitory concentration and percent hemolysis (at a concentration of 100 μg/ml) are listed below in Table I. As used herein, the heading "Amino Acid Residue Substituted" refers to the number of the amino acid residue in the peptide which is substituted with a desired amino acid residue. All other residues remain the same as that of the normal peptide sequence. The term "Minimum Inhibitory Concentration" (MIC) as used herein indicates the minimum concentration of peptide in μg/ml needed to achieve 100 percent effective growth inhibition of the organism.

Assay [2] has as its system Pseudomonas aeruginosa. As to conditions: LB medium. As for the experimental part:
as §1, §2, §3, §4, §5

Assay [3] deals with Staphylococcus epidermidis. In words: Antimicrobial assay in 96-well plates, LB medium (Example 2), MIC.
Assay [4] has as its system Staphylococcus epidermidis. In words: Antimicrobial assay for deletion analogues (Example 10), MIC. The note with it: Table VII; 3.0×10^5 CFU/ml, 20 hours, LB medium. As for the experimental part: (§6) For the deletion analogues of the parent peptide further described in Examples 11 and 12, antimicrobial assays were carried out in 96-well tissue culture plates. Each well was incubated with a given microorganism (Escherichia coli, Staphylococcus epidermidis, Pseudomonas aeruginosa, or Staphylococcus aureus) suspended in LB medium. Upon addition of the parent peptide or its deletion analogues (dissolved in 1×PBS<pH7.0), each well contained a final cell density of 1.3×10^5 colony forming units (CFU)/ml of E. coli, or 3.5×10^5 CFU/ml P.aeruginosa, or 3.9×10^5 CFU/ml S. Aureus or 3.0×10^5 CFU/ml S. epidermidis. The final peptide concentrations ranged from 1.5 μg/ml to greater than 100 μg/ml. Addition of peptide to the wells was defined as time zero. At twenty hours, the plates were placed in a Titertek Multiskan apparatus and the O.D. 620 determined. The plates as well as the initial innoculum were incubated at 37° C. Five wells per plate contained medium alone, whereas five others contained medium plus cells. These controls were used to eliminate the possibility of medium contamination, while providing a measure of uninhibited growth of the microorganisms. The degree of peptide activity was determined by comparing the deletion analogues with uninhibited growth of the control cells over a twenty-hour period. The effective growth inhibitation of the deletion analogues is listed in the examples and tables below.

The next assay relates to Staphylococcus aureus. The assay is described as above. The note with it: Table VII; 3.9×10^5 CFU/ml, 20 hours, LB medium. As for the experimental part:
as §6

Assay [5] relates to Escherichia coli. The description is as above. As to conditions: Table VII; 1.3×10^5 CFU/ml, 20 hours, LB medium. As for the experimental part:
as §6

Assay [6] concerns Pseudomonas aeruginosa. Described as above. As to conditions: Table VII; 3.5×10^5 CFU/ml, 20 hours, LB medium. As for the experimental part:
as §6

For another assay, the system named is E. coli ATCC 25922. In words: Antibacterial assay, NCCLS M7-T2 microdilution (Example 15), MIC. As to conditions: Table XI; Mueller Hinton broth, 16-20 hours 37° C., 1-5×10^5 CFUs/ml. As for the experimental part:
(§7) The procedure for the following antibacterial assay is based upon the guidelines of the National Committee for Clinical Laboratory Standards, Document M7-T2, Volume 8, No. 8, 1988.
(§8) Stock solutions of the following Peptides (SEQ ID NO:4) and (SEQ ID NO:64) through (SEQ ID NO:68) in accordance with the present invention are prepared at a concentration of 512 μg/ml in sterile deionized distilled water and stored at -70° C.
(§9) The stock peptide solution was diluted in serial dilutions (1:2) down the wells of a microtiter plate so that the final concentrations of peptides in the wells were 0.25, 0.50, 1, 2, 4, 8, 16, 32, 64, 128, and 256 μg/ml. 1-5×10^5 CFUs/ml of either S. aureus ATCC 25923, E. coli ATCC 25922, or P. aeruginosa ATCC 27853 were added to the wells in full strength Mueller Hinton broth (BBL 11443) from a mid-log culture. The inoculum is standarized spectrophotometrically at 600 nm and is verified by colony counts. […] Minimal inhibitory concentration is defined as the lowest concentration of peptide which produces a clear well in the microtiter plate.
(§10) For purposes of explanation of Table XI below, S is the MIC of the peptide against S. aureus, P is the MIC of the peptide against P. aeruginosa, and E is the MIC of the peptide against E. coli.

The next assay has as its system S. aureus ATCC 25923. The assay is described as above. The note with it: Table XI; Mueller Hinton broth, 16-20 hours 37° C., 1-5×10^5 CFUs/ml. As for the experimental part: as §7, §8, §9, §10
A further assay deals with P. aeruginosa ATCC 27853. The description is as above. As to conditions: Table XI; Mueller Hinton broth, 16-20 hours 37° C., 1-5×10^5 CFUs/ml. As for the experimental part: as §7, §8, §9, §10
[7] abbreviates: Table I, 100 percent growth inhibition, 20 hours, 1.0×10^6 CFU/ml.
Where [8] appears, read: Table II, lysine substitutions, 20 hours.
Where [9] appears, read: Table IV, analogues substituted at residues 4 and 11, 20 hours.

Several values for one entry are separate records, joined by “and”; a condition that tells them apart may be missing. Equal values may be shown once. Read-outs that look alike come from different tables or passages of the source. Ends that are not written are not given here.

As for “Ac-LKLLKKLLKKLKKLLKKL-NH2 [None (parent)]”, the “Minimum Inhibitory Concentration E. coli” value in the assay with Escherichia coli [1] (setting [7]) and in the assay with Escherichia coli [5] was 10 µg/mL throughout. Further, the “Minimum Inhibitory Concentration P. Aeruginosa” value in the assay with Pseudomonas aeruginosa [2] (setting [7]) and in the assay on Pseudomonas aeruginosa [6] was 75 µg/mL each time. For the same substance, the “Minimum Inhibitory Concentration S. epidermidis” value in [3] (setting [7]) and in assay [4] was 2.5 µg/mL in each case. In addition, the “Minimum Inhibitory Concentration S. aureus” value with Staphylococcus aureus was found to be 128 µg/mL.

With “LLKKLKKLLKKLLKLL-NH2 [(SEQ ID NO: 4) --NH2]”, the “MIC E (E. coli)” value in the assay with E. coli ATCC 25922 stood at 32 µg/mL. In the assay with S. aureus ATCC 25923, the “MIC S (S. aureus)” value is 32 µg/mL. Further, in the assay with P. aeruginosa ATCC 27853, the “MIC P (P. aeruginosa)” value was 64 µg/mL.

As to “Ac-LKKLLKKLKKLLKKL-NH2 [X-(SEQ ID NO: 66) --NH2]”, the “MIC E (E. coli)” value in the assay with E. coli ATCC 25922 worked out at 8 µg/mL. For the same substance, the “MIC S (S. aureus)” value in the assay with S. aureus ATCC 25923 was determined as 8 µg/mL. Moreover, the “MIC P (P. aeruginosa)” value against P. aeruginosa ATCC 27853 came out at 16 µg/mL.

For “Ac-LKLLKKLLKKGKKLLKKL-NH2 [X-(SEQ ID NO: 68) --NH2]”, in the assay on E. coli ATCC 25922, the “MIC E (E. coli)” value was found to be 16 µg/mL. In addition, in the assay on S. aureus ATCC 25923, the “MIC S (S. aureus)” value turned out to be 8 µg/mL. Moreover, the “MIC P (P. aeruginosa)” value with P. aeruginosa ATCC 27853 turned out to be 8 µg/mL.

As for “Ac-LLKKLKKLLKKLLKLL-NH2 [X-(SEQ ID NO: 4) --NH2]”, the “MIC E (E. coli)” value against E. coli ATCC 25922 came to 32 µg/mL. Besides, the “MIC S (S. aureus)” value against S. aureus ATCC 25923 was 32 µg/mL. Also, the “MIC P (P. aeruginosa)” value against P. aeruginosa ATCC 27853 is 64 µg/mL.

Consider “Ac-KKLLKKLKKLLKKL-NH2 [X-(SEQ ID NO: 65) --NH2]”, for which, in the assay with E. coli ATCC 25922, the “MIC E (E. coli)” value is 32 µg/mL. The “MIC S (S. aureus)” value with S. aureus ATCC 25923 amounted to 16 µg/mL. For the same substance, the “MIC P (P. aeruginosa)” value against P. aeruginosa ATCC 27853 is 16 µg/mL and 32 µg/mL.

With “Ac-KKLLKKLLKKLKKLLKKL-NH2 [1 (SEQ ID NO: 23)]”, the “Min. Inhibitory Concentration E. Coli” value in the assay with Escherichia coli [1] (setting [8]) is 5 µg/mL. In addition, the “Min. Inhibitory Concentration P. Aeruginosa” value with Pseudomonas aeruginosa [2] (setting [8]) worked out at 30 µg/mL. In [3] (setting [8]), the “Min. Inhibitory Concentration S. epidermidis” value was found to be 25 µg/mL.

As for Ac-LKLKKKLLKKMKKLLKKL-NH2 [Analogue 8], the “Min. Inhibitory Concentration E. Coli” value in the assay with Escherichia coli [1] (setting [9]) is 5 µg/mL. In the assay with Pseudomonas aeruginosa [2] (setting [9]), the “Min. Inhibitory Concentration P. Aeruginosa” value is 5 µg/mL. For the same substance, the “Min. Inhibitory Concentration S. epidermidis” value in [3] (setting [9]) was found to be 5 µg/mL.
